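All cell lines were grown in 96-well plates and treated with compound for 48 hours. Abbreviation: GI50, concentration required for 50% inhibition of growth.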 The source made the active and inactive calls. No stated cut-off is given here; in the data, active = GI50 up to about 1.1 µM and inactive = higher.
Key:
Test in all cases: inhibition of tumour cell growth, NCI panel, 48 h
[1] = test system: 786-0
[2] = test system: A549
[3] = test system: ACHN
[4] = test system: CAKI-1
[5] = test system: CCRF-CEM
[6] = test system: COLO 205
[7] = test system: DLD-1
[8] = test system: DMS-114
[9] = test system: DMS-273
[10] = test system: HCC 2998
[11] = test system: HCT-116
[12] = test system: HCT-15
[13] = test system: HL-60
[14] = test system: HOP-62
[15] = test system: HOP-92
[16] = test system: HT-29
[17] = test system: IGROV-1
[18] = test system: K562
[19] = test system: KM-20L2
[20] = test system: KM12
[21] = test system: LXFL 529
[22] = test system: M14
[23] = test system: M19-MEL
[24] = test system: MOLT-4
[25] = test system: Malme-3M
[26] = test system: NCI-H226
[27] = test system: NCI-H23
[28] = test system: NCI-H460
[29] = test system: NCI-H522
[30] = test system: OVCAR-3
[31] = test system: OVCAR-4
[32] = test system: OVCAR-5
[33] = test system: OVCAR-8
[34] = test system: RPMI-8226
[35] = test system: SF-268
[36] = test system: SF-295
[37] = test system: SF-539
[38] = test system: SK-MEL-28
[39] = test system: SK-MEL-2
[40] = test system: SK-MEL-5
[41] = test system: SNB-19
[42] = test system: SNB-75
[43] = test system: SR
[44] = test system: SW-620
[45] = test system: TK-10
[46] = test system: U-251
[47] = test system: UACC-257
[48] = test system: UACC-62
[49] = test system: UO-31
[50] = test system: XF498
[51] = test system: A498
[52] = test system: RXF 393
[53] = test system: SK-OV-3
[54] = test system: SNB-78
[55] = test system: EKVX
[56] = test system: HOP-18
[57] = test system: SN12C
[58] = test system: LOX IMVI

SMILES: N#CCc1c(-c2ccccc2)n(S(=O)(=O)c2ccccc2)c2ccccc12
- GI50 [1]: > 100 µM (inactive)
- GI50 [2]: > 100 µM (inactive)
- GI50 [3]: > 100 µM (inactive)
- GI50 [4]: > 100 µM (inactive)
- GI50 [5]: > 100 µM (inactive)
- GI50 [6]: > 100 µM (inactive)
- GI50 [7]: > 100 µM (inactive)
- GI50 [8]: 64.9 µM (inactive)
- GI50 [9]: > 100 µM (inactive)
- GI50 [10]: > 100 µM (inactive)
- GI50 [11]: 37.1 µM (inactive)
- GI50 [12]: 82.8 µM
- GI50 [13]: > 100 µM (inactive)
- GI50 [14]: 36.1 µM (inactive)
- GI50 [15]: 8.89 µM (inactive)
- GI50 [16]: > 100 µM (inactive)
- GI50 [17]: > 100 µM (inactive)
- GI50 [18]: 46.9 µM (inactive)
- GI50 [19]: > 100 µM (inactive)
- GI50 [20]: > 100 µM (inactive)
- GI50 [21]: > 100 µM (inactive)
- GI50 [22]: > 100 µM (inactive)
- GI50 [23]: > 100 µM (inactive)
- GI50 [24]: 41.3 µM (inactive)
- GI50 [25]: > 100 µM (inactive)
- GI50 [26]: > 100 µM (inactive)
- GI50 [27]: 33.7 µM (inactive)
- GI50 [28]: > 100 µM (inactive)
- GI50 [29]: > 10 µM (inactive)
- GI50 [30]: > 100 µM (inactive)
- GI50 [31]: 37.3 µM (inactive)
- GI50 [32]: > 100 µM (inactive)
- GI50 [33]: > 100 µM (inactive)
- GI50 [34]: 31.2 µM (inactive)
- GI50 [35]: > 100 µM (inactive)
- GI50 [36]: 25.1 µM (inactive)
- GI50 [37]: > 100 µM (inactive)
- GI50 [38]: > 100 µM (inactive)
- GI50 [39]: > 100 µM (inactive)
- GI50 [40]: > 100 µM (inactive)
- GI50 [41]: 63.5 µM (inactive)
- GI50 [42]: 6.78 µM (inactive)
- GI50 [43]: 12.2 µM (inactive)
- GI50 [44]: > 100 µM (inactive)
- GI50 [45]: > 100 µM (inactive)
- GI50 [46]: > 100 µM (inactive)
- GI50 [47]: > 100 µM (inactive)
- GI50 [48]: 94.2 µM (inactive)
- GI50 [49]: 14.8 µM (inactive)
- GI50 [50]: > 100 µM (inactive)

SMILES: CCO[C@@H]1OC(=O)[C@](C)(C(C)=O)[C@@H]1C
- GI50 [51]: > 100 µM (inactive)
- GI50 [3]: > 100 µM (inactive)
- GI50 [5]: 14.7 µM (inactive)
- GI50 [6]: > 100 µM (inactive)
- GI50 [8]: 37.2 µM (inactive)
- GI50 [13]: 17.9 µM (inactive)
- GI50 [14]: 43.2 µM (inactive)
- GI50 [15]: 27.5 µM (inactive)
- GI50 [16]: 68.4 µM (inactive)
- GI50 [17]: > 100 µM (inactive)
- GI50 [18]: 44.2 µM (inactive)
- GI50 [19]: > 100 µM (inactive)
- GI50 [20]: > 100 µM (inactive)
- GI50 [21]: 40.6 µM (inactive)
- GI50 [22]: 67 µM (inactive)
- GI50 [23]: 58.1 µM (inactive)
- GI50 [24]: 23.3 µM (inactive)
- GI50 [27]: 16.8 µM (inactive)
- GI50 [28]: > 100 µM (inactive)
- GI50 [29]: > 100 µM (inactive)
- GI50 [30]: 29 µM (inactive)
- GI50 [31]: 71.9 µM (inactive)
- GI50 [32]: > 100 µM (inactive)
- GI50 [34]: 18.8 µM (inactive)
- GI50 [52]: 41.5 µM (inactive)
- GI50 [35]: 14.7 µM (inactive)
- GI50 [36]: 36.8 µM (inactive)
- GI50 [37]: 23.1 µM (inactive)
- GI50 [38]: 37.5 µM (inactive)
- GI50 [39]: 55.2 µM (inactive)
- GI50 [53]: 59 µM (inactive)
- GI50 [41]: 75.3 µM (inactive)
- GI50 [42]: 0.21 µM (active)
- GI50 [54]: 33.7 µM (inactive)
- GI50 [43]: 27.9 µM (inactive)
- GI50 [46]: 34.4 µM (inactive)
- GI50 [47]: > 100 µM (inactive)
- GI50 [48]: 57.8 µM (inactive)
- GI50 [49]: > 100 µM (inactive)

SMILES: CCOC(=O)/C(C#N)=C(O)/C(=C/c1ccccc1Cl)NC(=O)c1ccccc1
- GI50 [1]: > 100 µM (inactive)
- GI50 [51]: > 100 µM (inactive)
- GI50 [2]: > 100 µM (inactive)
- GI50 [3]: > 100 µM (inactive)
- GI50 [4]: > 100 µM (inactive)
- GI50 [5]: > 100 µM (inactive)
- GI50 [6]: > 100 µM (inactive)
- GI50 [7]: > 100 µM (inactive)
- GI50 [8]: > 100 µM (inactive)
- GI50 [9]: 31.5 µM (inactive)
- GI50 [55]: > 100 µM (inactive)
- GI50 [10]: > 100 µM (inactive)
- GI50 [11]: 30.3 µM (inactive)
- GI50 [12]: 27.7 µM
- GI50 [13]: > 100 µM (inactive)
- GI50 [56]: > 100 µM (inactive)
- GI50 [14]: > 100 µM (inactive)
- GI50 [15]: > 100 µM (inactive)
- GI50 [16]: > 100 µM (inactive)
- GI50 [17]: > 100 µM (inactive)
- GI50 [18]: 88.1 µM (inactive)
- GI50 [19]: > 100 µM (inactive)
- GI50 [20]: > 100 µM (inactive)
- GI50 [21]: > 100 µM (inactive)
- GI50 [22]: > 100 µM (inactive)
- GI50 [23]: > 100 µM (inactive)
- GI50 [24]: > 100 µM (inactive)
- GI50 [25]: > 100 µM (inactive)
- GI50 [26]: > 100 µM (inactive)
- GI50 [27]: > 100 µM (inactive)
- GI50 [28]: > 100 µM (inactive)
- GI50 [29]: 0.0195 µM (active)
- GI50 [30]: > 100 µM (inactive)
- GI50 [31]: > 100 µM (inactive)
- GI50 [32]: > 100 µM (inactive)
- GI50 [33]: > 100 µM (inactive)
- GI50 [34]: 26.6 µM (inactive)
- GI50 [35]: > 100 µM (inactive)
- GI50 [36]: > 100 µM (inactive)
- GI50 [37]: > 100 µM (inactive)
- GI50 [38]: > 100 µM (inactive)
- GI50 [40]: > 100 µM (inactive)
- GI50 [53]: > 100 µM (inactive)
- GI50 [57]: > 100 µM (inactive)
- GI50 [41]: > 100 µM (inactive)
- GI50 [42]: > 100 µM (inactive)
- GI50 [54]: > 100 µM (inactive)
- GI50 [44]: 18.8 µM (inactive)
- GI50 [45]: > 100 µM (inactive)
- GI50 [46]: > 100 µM (inactive)
- GI50 [47]: > 100 µM (inactive)
- GI50 [48]: > 100 µM (inactive)
- GI50 [49]: > 100 µM (inactive)

SMILES: CCOC(=O)C1=C(C)N2CCOC2(C)C(C(=O)OC)C1c1cccc(Cl)c1 (stereo not given)
- GI50 [1]: > 100 µM (inactive)
- GI50 [51]: > 100 µM (inactive)
- GI50 [2]: > 100 µM (inactive)
- GI50 [3]: > 100 µM (inactive)
- GI50 [4]: > 100 µM (inactive)
- GI50 [5]: > 100 µM (inactive)
- GI50 [6]: > 100 µM (inactive)
- GI50 [7]: > 100 µM (inactive)
- GI50 [8]: 54 µM (inactive)
- GI50 [9]: > 100 µM (inactive)
- GI50 [55]: > 100 µM (inactive)
- GI50 [10]: > 100 µM (inactive)
- GI50 [11]: > 100 µM (inactive)
- GI50 [12]: > 100 µM
- GI50 [13]: 56.4 µM (inactive)
- GI50 [56]: > 100 µM (inactive)
- GI50 [14]: > 100 µM (inactive)
- GI50 [15]: 31.6 µM (inactive)
- GI50 [16]: > 100 µM (inactive)
- GI50 [17]: > 100 µM (inactive)
- GI50 [18]: 81.5 µM (inactive)
- GI50 [19]: > 100 µM (inactive)
- GI50 [20]: > 100 µM (inactive)
- GI50 [58]: > 100 µM (inactive)
- GI50 [21]: > 100 µM (inactive)
- GI50 [22]: > 100 µM (inactive)
- GI50 [23]: > 100 µM (inactive)
- GI50 [25]: > 100 µM (inactive)
- GI50 [27]: > 100 µM (inactive)
- GI50 [28]: > 100 µM (inactive)
- GI50 [29]: 88.7 µM (inactive)
- GI50 [30]: > 100 µM (inactive)
- GI50 [32]: > 100 µM (inactive)
- GI50 [33]: > 100 µM (inactive)
- GI50 [34]: > 100 µM (inactive)
- GI50 [35]: > 100 µM (inactive)
- GI50 [36]: > 100 µM (inactive)
- GI50 [37]: > 100 µM (inactive)
- GI50 [38]: > 100 µM (inactive)
- GI50 [39]: > 100 µM (inactive)
- GI50 [40]: > 100 µM (inactive)
- GI50 [53]: > 100 µM (inactive)
- GI50 [57]: > 100 µM (inactive)
- GI50 [41]: > 100 µM (inactive)
- GI50 [42]: > 100 µM (inactive)
- GI50 [54]: > 100 µM (inactive)
- GI50 [43]: > 100 µM (inactive)
- GI50 [44]: > 100 µM (inactive)
- GI50 [45]: > 100 µM (inactive)
- GI50 [46]: > 100 µM (inactive)
- GI50 [47]: > 100 µM (inactive)
- GI50 [48]: 88.7 µM (inactive)
- GI50 [49]: > 100 µM (inactive)
